The values below come from US8829193B2, “PIM kinase inhibitors and methods of their use” (Novartis AG, priority 2008, dated 2014).

For assay [1], the system named is KMS11 (human myeloma cell line). The assay can be described thus: Cell Proliferation Assay. In kind it is cell-based. To be noted: KMS-11, 72 h, KMS11 cells, 3 days, Cell Titer-Glow. As for the experimental part: KMS11 (human myeloma cell line), were cultured in IMDM supplemented with 10% FBS, sodium pyruvate and antibiotics. Cells were plated in the same medium at a density of 2000 cells per well into 96 well tissue culture plates, with outside wells vacant, on the day of assay. MM1.s (human myeloma cell line), were cultured in RPMI1640 supplemented with 10% FBS, sodium pyruvate and antibiotics. Cells were plated in the same medium at a density of 5000 cells per well into 96 well tissue culture plates, with outside wells vacant, on the day of assay.
Test compounds supplied in DMSO were diluted into DMSO at 500 times the desired final concentrations before dilution into culture media to 2 times final concentrations. Equal volumes of 2× compounds were added to the cells in 96 well plates and incubated at 37° C. for 3 days.
After 3 days plates were equilibrated to room temperature and equal volume of Cell Titer-Glow Reagent (Promega) was added to the culture wells. The plates were agitated briefly and luminescent signal was measured with luminometer.
Using the procedures for Cell Proliferation Assay described above, the EC50 concentration of compounds of the previous examples were determined in KMS11 cells as shown in the following table.
For orientation: Cellular ATP, detected with luciferase, serves as a proxy for viable cell number.

The target in the next assay is Pim1 kinase (Homo sapiens (Human), UniProt P11309). The assay can be described thus: Pim1 ATP depletion assay. The format is biochemical. To be noted: 20 μM ATP, 40 μM BAD peptide, 2.5 nM PIM1. As for the experimental part: (§1) The activity of PIM1 is measured using a luciferase-luciferin based ATP detection reagent to quantify ATP depletion resulting from kinase-catalyzed phosphoryl transfer to a peptide substrate. Compounds to be tested are dissolved in 100% DMSO and directly distributed into white 384-well plates at 0.5 μl per well. […] After 15 minutes, 10 μl of 40 μM ATP in assay buffer is added. Final assay concentrations are 2.5 nM PIM1, 20 μM ATP, 40 μM BAD peptide and 2.5% DMSO. The reaction is performed until approximately 50% of the ATP is depleted, then stopped with the addition of 20 μl KinaseGlo Plus (Promega Corporation) solution. The stopped reaction is incubated for 10 minutes and the remaining ATP detected via luminescence on the Victor2 (Perkin Elmer).
Pim1 kinase, sequence (P11309 whole entry): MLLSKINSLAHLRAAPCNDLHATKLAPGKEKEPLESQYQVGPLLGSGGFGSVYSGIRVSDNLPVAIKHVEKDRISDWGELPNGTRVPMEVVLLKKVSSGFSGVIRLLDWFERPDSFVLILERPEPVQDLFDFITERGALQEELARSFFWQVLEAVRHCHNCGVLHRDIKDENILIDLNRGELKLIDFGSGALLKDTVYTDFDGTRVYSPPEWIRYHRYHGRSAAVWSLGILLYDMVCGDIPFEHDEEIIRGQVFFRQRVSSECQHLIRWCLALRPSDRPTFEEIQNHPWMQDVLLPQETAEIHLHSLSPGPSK

The next assay addresses Pim2 kinase (Homo sapiens (Human), UniProt Q9P1W9). Description: Pim2 ATP depletion assay. To be noted: 4 μM ATP, 10 μM BAD peptide, 5 nM PIM2. The format is biochemical. As to the method: as §1, with “of PIM2” for “of PIM1”, “0.5 piper” for “0.5 μl per”, “of 8” for “of 40”, “are 5” for “are 2.5”, “nM PIM2, 4” for “nM PIM1, 20”, “ATP, 10” for “ATP, 40”
The next assay addresses Pim3 kinase (Homo sapiens (Human), UniProt Q86V86). The assay can be described thus: Pim3 ATP depletion assay. In kind it is biochemical. To be noted: 40 μM ATP, 100 μM BAD peptide. As to the method: The activity of PIM3 is measured using a luciferase-luciferin based ATP detection reagent to quantify ATP depletion resulting from kinase-catalyzed phosphoryl transfer to a peptide substrate. Compounds to be tested are dissolved in 100% DMSO and directly distributed into white 384-well plates at 0.5 piper well. […] After 15 minutes, 10 μl of 80 μM ATP in assay buffer is added. Final assay concentrations are 5 nM PIM1, 40 μM ATP, 100 μM BAD peptide and 2.5% DMSO. The reaction is performed until approximately 50% of the ATP is depleted, then stopped by the addition of 20 μl KinaseGlo Plus (Promega Corporation) solution. The stopped reaction is incubated for 10 minutes and the remaining ATP detected via luminescence on the Victor2 (Perkin Elmer).

Pim2 kinase, sequence (Q9P1W9 whole entry): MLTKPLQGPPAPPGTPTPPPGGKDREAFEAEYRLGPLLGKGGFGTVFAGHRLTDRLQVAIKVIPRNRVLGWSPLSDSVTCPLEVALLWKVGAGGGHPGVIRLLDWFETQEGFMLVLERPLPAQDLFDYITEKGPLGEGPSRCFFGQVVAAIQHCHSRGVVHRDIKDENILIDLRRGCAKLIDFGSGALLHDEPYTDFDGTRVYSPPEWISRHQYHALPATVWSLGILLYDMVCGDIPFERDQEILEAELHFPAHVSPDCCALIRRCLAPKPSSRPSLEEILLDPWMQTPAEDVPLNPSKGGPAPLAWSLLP

As usually defined, the EC50 is the concentration giving half of the maximal effect. The term IC50 denotes the concentration at which inhibition is half-maximal. Read a high IC50 as weaker potency in that assay. `Nc1sc(-c2c(F)cccc2F)nc1C(=O)Nc1cnccc1[C@@H]1CC[C@H](O)[C@H](N)C1` (stereo in doubt) [Example 38, 5-amino-N-(4-(3-amino-4-hydroxycyclohexyl)pyridin-3-yl)-2-(2,6-difluorophenyl)thiazole-4-carboxamide] registered an EC50 in assay [1] of 1890 nM. The IC50 was determined as 1 nM against Pim1 kinase, 4 nM at Pim2 kinase and 3 nM on Pim3 kinase.

For `N[C@H]1CCCN(c2ccncc2NC(=O)c2csc(-c3c(F)cccc3F)n2)C1` [Example 1, (S)-N-(4-(3-aminopiperidin-1-yl)pyridin-3-yl)-2-(2,6-difluorophenyl)thiazole-4-carboxamide], a half-maximal response in assay [1] (EC50) required 1170 nM.

In turn, `N[C@@H]1CN(c2ccncc2NC(=O)c2csc(-c3c(F)cccc3F)n2)CC[C@H]1O` [Example 2, N-(4-((3R,4R)-3-amino-4-hydroxypiperidin-1-yl)pyridin-3-yl)-2-(2,6-difluorophenyl)thiazole-4-carboxamide] returned a 50% effective concentration (EC50) in assay [1] of 1570 nM. The IC50 against Pim1 kinase is 2 nM; on Pim2 kinase, 11 nM; at Pim3 kinase it was 4 nM.

On to `CC1CC(N)CN(c2ccncc2NC(=O)c2csc(-c3c(F)cccc3F)n2)C1` (stereo not drawn) [Example 14, N-(4-(3-amino-5-methylpiperidin-1-yl)pyridin-3-yl)-2-(2,6-difluorophenyl)thiazole-4-carboxamide], for which the half-maximal effective concentration (EC50) in assay [1] came out at 830 nM.

For `C[C@@H]1C[C@H](N)CN(c2ccncc2NC(=O)c2csc(-c3c(F)cccc3F)n2)C1` [Example 28, N-(4-((3S,5R)-3-amino-5-methylpiperidin-1-yl)pyridin-3-yl)-2-(2,6-difluoropheenyl)thiazole-4-carboxamide], the concentration giving a half-maximal response (EC50) in assay [1] is 400 nM.

`Nc1sc(-c2c(F)cccc2F)nc1C(=O)Nc1cnccc1N1CCC[C@H](N)C1` [Example 29, (S)-5-amino-N-(4-(3-aminopiperidin-1-yl)pyridin-3-yl)-2-(2,6-difluorophenyl)thiazole-4-carboxamide] had a 50% effective concentration (EC50) in assay [1] of 40 nM.

Turning to `Nc1sc(-c2c(F)cccc2F)nc1C(=O)Nc1cnccc1N1CCC(F)CC1` [Example 30, 5-amino-2-(2,6-difluorophenyl)-N-(4-(4-fluoropiperidin-1-yl)pyridin-3-yl)thiazole-4-carboxamide], the half-maximal inhibitory concentration (IC50) against Pim1 kinase stood at 1 nM; against Pim2 kinase, 55 nM; against Pim3 kinase, 3 nM.

Regarding `C[C@@H]1C[C@H](O)C[C@H](c2ccncc2NC(=O)c2csc(-c3c(F)cccc3F)n2)C1` [Example 31, 2-(2,6-difluorophenyl)-N-(4-((1R,3S,5S)-3-hydroxy-5-methylcyclohexyl)pyridin-3-yl)thiazole-4-carboxamide], the IC50 at Pim1 kinase worked out at 2 nM; against Pim2 kinase, 90 nM; on Pim3 kinase it was 8 nM.

`C[C@@H]1C[C@H](O)C[C@H](c2ccncc2NC(=O)c2nc(-c3c(F)cccc3F)sc2N)C1` [Example 32, 5-amino-2-(2,6-difluorophenyl)-N-(4-((1R,3S,5S)-3-hydroxy-5-methylcyclohexyl)pyridin-3-yl)thiazole-4-carboxamide]: the figures for the IC50 at Pim1 kinase, on Pim2 kinase and on Pim3 kinase were 1 nM, 5 nM and 4 nM, respectively.

`Nc1sc(-c2c(F)cccc2F)nc1C(=O)Nc1cnccc1[C@@H]1CCC[C@H](N)C1` [Example 33, 5-amino-N-(4-((1R,3S)-3-aminocyclohexyl)pyridin-3-yl)-2-(2,6-difluorophenyl)thiazole-4-carboxamide] showed a concentration for a half-maximal effect (EC50) in assay [1] of 430 nM. For the same molecule, at Pim1 kinase, the half-inhibitory concentration (IC50) was found to be 1 nM.

Molecule `N[C@H]1CCC[C@@H](c2ccncc2NC(=O)c2csc(-c3c(F)cccc3F)n2)C1` [Example 34, N-(4-((1R,3S)-3-aminocyclohexyl)pyridin-3-yl)-2-(2,6-difluorophenyl)thiazole-4-carboxamide] gave a concentration for a half-maximal effect (EC50) in assay [1] of 5020 nM.

Consider `C[C@@H]1CN(c2ccncc2NC(=O)c2csc(-c3c(F)cccc3F)n2)C[C@@H](N)[C@H]1O` [Example 35, N-(4-((3R,4S,5R)-3-amino-4-hydroxy-5-methylpiperidin-1-yl)pyridin-3-yl)-2-(2,6-difluorophenyl)thiazole-4-carboxamide], for which the IC50 at Pim1 kinase turned out to be 9 nM; against Pim2 kinase it was 125 nM; on Pim3 kinase, 9 nM.

For `C[C@@H]1C[C@H](N)C[C@H](c2ccncc2NC(=O)c2csc(C3CCCCC3)n2)C1` [Example 40, N-(4-((1R,3S,5S)-3-amino-5-methylcyclohexyl)pyridin-3-yl)-2-cyclohexylthiazole-4-carboxamide], the IC50 was 41 nM at Pim1 kinase, 97 nM at Pim2 kinase and 109 nM on Pim3 kinase.

As for `C[C@H]1C[C@@H](c2ccncc2NC(=O)c2csc(C3CCCCC3)n2)C[C@@H](N)[C@@H]1O` [Example 42, N-(4-((1R,3R,4R,5S)-3-amino-4-hydroxy-5-methylcyclohexyl)pyridin-3-yl)-2-cyclohexylthiazole-4-carboxamide], the IC50 came out at 146 nM against Pim1 kinase, 250 nM on Pim2 kinase and 215 nM at Pim3 kinase.

Take `C[C@H]1C[C@@H](c2ccncc2NC(=O)c2csc(-c3c(F)cccc3F)n2)C[C@@H](N)[C@H]1O` [Example 43, N-(4-((1R,3R,4S,5S)-3-amino-4-hydroxy-5-methylcyclohexyl)pyridin-3-yl)-2-(2,6-difluorophenyl)thiazole-4-carboxamide (and enantiomer)]: the IC50 against Pim1 kinase was determined as 5 nM; at Pim2 kinase it was 46 nM; on Pim3 kinase, 15 nM.

Molecule `C[C@@H]1C[C@H](N)C[C@H](c2ccncc2NC(=O)c2csc(-c3c(F)cccc3F)n2)C1` [Example 45, N-(4-((1R,3S,5S)-3-amino-5-methylcyclohexyl)pyridin-3-yl)-2-(2,6-difluorophenyl)thhiazole-4-carboxamide] had an EC50 in assay [1] of 920 nM. For the same molecule, the IC50 on Pim1 kinase came out at 1 nM; against Pim3 kinase it was 3 nM.

Take `CC1(C)C[C@H](N)C[C@H](c2ccncc2NC(=O)c2csc(-c3c(F)cccc3F)n2)C1` [Example 46, N-(4-((1R,5R)-5-amino-3,3-dimethylcyclohexyl)pyridin-3-yl)-2-(2,6-difluorophenyl)thiazole-4-carboxamide]: the results for the IC50 at Pim1 kinase, on Pim2 kinase and on Pim3 kinase were 1 nM, 16 nM and 3 nM, respectively.

For the molecule `N[C@H]1CCCN(c2ccncc2NC(=O)c2csc(-c3ccccc3)n2)C1` [Example 48, (S)-N-(4-(3-aminopiperidin-1-yl)pyridin-3-yl)-2-phenylthiazole-4-carboxamide], the half-maximal inhibitory concentration (IC50) worked out at 2 nM against Pim1 kinase, 17.7 nM against Pim2 kinase and 2.3 nM against Pim3 kinase.

Take `N[C@H]1CCCN(c2ccncc2NC(=O)c2csc(-c3ccccc3F)n2)C1` [Example 49, (S)-N-(4-(3-aminopiperidin-1-yl)pyridin-3-yl)-2-(2-fluorophenyl)thiazole-4-carboxamide]: the concentration for half-maximal inhibition (IC50) at Pim1 kinase came to 1.9 nM; against Pim2 kinase, 9.9 nM; against Pim3 kinase, 4.2 nM.

With `CC(C)NC(=O)c1ccc(F)c(-c2nc(C(=O)Nc3cnccc3N3CCC[C@H](N)C3)cs2)c1` [Example 50, (S)-N-(4-(3-aminopiperidin-1-yl)pyridin-3-yl)-2-(2-fluoro-5-(isopropylcarbamoyl)phenyl)thiazole-4-carboxamide], the IC50 was found to be 3.2 nM against Pim1 kinase, 83.8 nM against Pim2 kinase and 8.3 nM against Pim3 kinase.

As to `CC(C)Oc1ccc(F)c(-c2nc(C(=O)Nc3cnccc3[C@@H]3C[C@H](C)C[C@H](N)C3)cs2)c1F` [Example 53], the IC50 came out at 1 nM against Pim1 kinase, 20 nM against Pim2 kinase and 3 nM against Pim3 kinase.
